By half-life is commonly meant the time in which the quantity being followed falls by half. A lower half-life goes with rapid decline.

SMILES strings stand for the structures.

The target in one series is T1, EGFR^L858R+T790M+C797S (Homo sapiens, UniProt P00533, C797S/L858R/T790M).
T1 construct: expressed in transfected cells; host or cells: Ba/F3
The series is described as follows: EGFR protein degradation test (Western blot) in Ba/F3 cells expressing mutant EGFR L858R+T790M+C797S (LTC). In kind it is cell-based. To be noted: compounds at 0.1 μM and 1 μM, 24 hours, Western blot with EGFR antibody. In outline: (§1)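 EGFR protein level was measured by Western blot on 30 μg lysate, bands quantified by imager. Lysates came from Ba/F3 lines carrying normal, LTC or DTC mutant EGFR, exposed 24 h to compound at 0.1 and 1 μM.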
A general note: In western blotting, separated proteins are transferred to a membrane and probed.

For a further series, the system named is EGFR^del19+T790M+C797S. Briefly: EGFR protein degradation test (Western blot) in Ba/F3 cells expressing mutant EGFR del19+T790M+C797S (DTC). Format: cell-based. Particulars: compounds at 0.1 μM and 1 μM, 24 hours, Western blot with EGFR antibody. An outline of the steps: as §1
Series [1] is described as follows: Pharmacokinetic evaluation after single oral administration to ICR mice. In kind it is in vivo. To be noted: for half-life / AUC(0-t): mouse, ICR mice, single oral dose 5 mg/kg, plasma; for AUC(0-t): read-out: AUC0-24. On the procedure:
Pharmacokinetic tests for the compounds of the present invention were conducted as below. After a single oral administration of the compound of the present invention to ICR mice, the concentration of the compound over time was followed up and analyzed.
The compound of the present invention was suspended in 10% DMSO/90% (30% HPbCD aqueous solution) and orally administered to mice at a dose of 5 mg/kg. Blood was collected at a fixed time and plasma was separated. Drug analysis was performed using HPLC (XBridge column C18, Waters, mobile phase 0.1% formic acid:acetonitrile (30:70, %/%)) and MS/MS (ESI positive, MRM). Mouse blood plasma and each commercially available standard solution were mixed at a ratio of 9:1 to prepare and calibrate at concentrations of […] 5,000 ng/mL. In addition, the preparation of QC samples was prepared by mixing the mouse blood plasma and the standard solution for QC at a ratio of 9:1, and prepared to be concentrations of 100, 750 and 2,500 ng/mL. 100 μL of the plasma sample was transferred to a centrifugation tube, and 10 μL of the internal standard solution and 300 μL of methanol were added, followed by mixing for about 30 seconds for pretreatment. The tube was centrifuged at 3,000×g (4° C.) for about 5 minutes, and the supernatant was taken and transferred to an LC vial and injected into the instrument. Then, the concentration of the compound in mouse plasma was quantified by applying a previously validated assay. For pharmacokinetic parameters, the program WinNonlin 5.2 (Pharsight, USA) was used. AUC0-t, AUC0-∞, Cmax, Tmax, and t1/2 were calculated by Noncompartment modeling (best fit). The pharmacokinetic parameter results were expressed as the mean (Mean) and standard deviation (SD), and were statistically processed using the SPSS program (Statistical Package for the Social Sciences, 10.0K, USA).

Where [2] appears, read: 74, 76, 77, 80, 81 vs 45, 71, 51, 65, 53.
Where [3] appears, read: 69, 70, 75, 78, 82 vs compounds 53 and 65.

T1 sequence (P00533 25-1210 T790M/C797S/L858R): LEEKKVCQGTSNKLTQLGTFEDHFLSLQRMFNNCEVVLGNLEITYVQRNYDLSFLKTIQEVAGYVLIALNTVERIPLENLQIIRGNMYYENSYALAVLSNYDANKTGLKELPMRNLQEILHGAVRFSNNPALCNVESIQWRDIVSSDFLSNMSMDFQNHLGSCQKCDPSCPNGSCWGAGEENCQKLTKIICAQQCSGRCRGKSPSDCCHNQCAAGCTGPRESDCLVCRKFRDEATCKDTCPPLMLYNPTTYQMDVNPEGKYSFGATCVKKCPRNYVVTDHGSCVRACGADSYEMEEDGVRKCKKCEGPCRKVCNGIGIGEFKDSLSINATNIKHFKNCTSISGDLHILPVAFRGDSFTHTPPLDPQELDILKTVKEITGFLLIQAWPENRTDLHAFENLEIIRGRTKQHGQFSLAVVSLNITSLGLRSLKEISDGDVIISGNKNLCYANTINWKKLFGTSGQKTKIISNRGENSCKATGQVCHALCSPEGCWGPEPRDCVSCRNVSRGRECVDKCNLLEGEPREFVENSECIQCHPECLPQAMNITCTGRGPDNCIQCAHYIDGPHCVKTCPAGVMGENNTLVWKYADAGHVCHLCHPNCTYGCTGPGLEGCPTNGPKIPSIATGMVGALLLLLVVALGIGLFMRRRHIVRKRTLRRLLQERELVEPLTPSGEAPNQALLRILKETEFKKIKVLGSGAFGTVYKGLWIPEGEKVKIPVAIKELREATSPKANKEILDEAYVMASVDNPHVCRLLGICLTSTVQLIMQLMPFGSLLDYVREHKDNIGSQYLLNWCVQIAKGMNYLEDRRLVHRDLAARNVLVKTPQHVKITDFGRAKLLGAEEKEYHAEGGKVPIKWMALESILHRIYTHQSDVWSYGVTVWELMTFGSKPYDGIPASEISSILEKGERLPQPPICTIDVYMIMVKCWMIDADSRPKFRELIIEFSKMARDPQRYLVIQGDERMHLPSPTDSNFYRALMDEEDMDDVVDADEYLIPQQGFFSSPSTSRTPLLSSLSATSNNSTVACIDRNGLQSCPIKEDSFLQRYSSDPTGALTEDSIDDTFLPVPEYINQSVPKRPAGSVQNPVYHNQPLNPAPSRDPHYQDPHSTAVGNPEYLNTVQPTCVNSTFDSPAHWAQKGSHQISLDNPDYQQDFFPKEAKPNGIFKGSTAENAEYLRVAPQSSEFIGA

Take `COc1cc(N2CCC(N3CCN(CC4CCN(c5ccc6c(c5)C(=O)N(C5CCC(=O)NC5=O)C6=O)CC4)CC3)CC2)c(C)cc1Nc1ncc(Cl)c(Nc2ccccc2N(C)S(C)(=O)=O)n1` (stereo not shown) [Compound 76, N-(2-((5-chloro-2-((4-(4-(4-((1-(2-(2,6-dioxopiperidin-3-yl)-1,3-dioxoisoindolin-5-yl)piperidin-4-yl)methyl)piperazin-1-yl)piperidin-1-yl)-2-methoxy-5-methylphenyl)amino)pyrimidin-4-yl)amino)phenyl)-N-methylmethanesulfonamide]: at EGFR^L858R+T790M+C797S, the “LTC (EGFR^L858R+T790M+C797S) protein degradation” value (“LTC” for short) was “++ (Protein degradation > 80%)”. Also, the “DTC (EGFR^del19+T790M+C797S) protein degradation” value (from here on “DTC”) with EGFR^del19+T790M+C797S is reported as “+ (Protein degradation 20~80%)”. The “AUC compared to the corresponding compounds” value in series [1] (setting [2]) is on record as “significantly improved AUC”. In addition, in series [1], the half-life is 400 min and the AUC(0-t) is 5240 ng·h/mL.

As for `COc1cc(N2CCC(N3CCN(CCC4CCN(c5ccc6c(c5)C(=O)N(C5CCC(=O)NC5=O)C6=O)CC4)CC3)CC2)c(C)cc1Nc1ncc(Cl)c(Nc2ccccc2N(C)S(C)(=O)=O)n1` (stereo not shown) [Compound 77, N-(2-((5-chloro-2-((4-(4-(4-(2-(1-(2-(2,6-dioxopiperidin-3-yl)-1,3-dioxoisoindolin-5-yl)piperidin-4-yl)ethyl)piperazin-1-yl)piperidin-1-yl)-2-methoxy5-methylphenyl)amino)pyrimidin-4-yl)amino)phenyl)-N-methylmethanesulfonamide], the “LTC” value at EGFR^L858R+T790M+C797S is on record as “++ (Protein degradation > 80%)”. Further, in the series on EGFR^del19+T790M+C797S, the “DTC” value was “+ (Protein degradation 20~80%)”. In addition, in series [1] (setting [2]), the “AUC compared to the corresponding compounds” value is listed as “significantly improved AUC”. In series [1], the half-life was 178 min and the AUC(0-t) is 1170 ng·h/mL.

Take `COc1cc(N2CCC(CN3CCN(C(=O)[C@H](C)Nc4cccc5c4C(=O)N(C4CCC(=O)NC4=O)C5=O)CC3)CC2)c(C)cc1Nc1ncc(Cl)c(Nc2ccccc2N(C)S(C)(=O)=O)n1` (stereo partly drawn) [Compound 78, N-(2-((5-chloro-2-((4-(4-((4-((2-(2,6-dioxopiperidin-3-yl)-1,3-dioxoisoindolin-4-yl)-L-alanyl)piperazin-1-yl)methyl)piperidin-1-yl)-2-methoxy-5-methylphenyl)amino)pyrimidin-4-yl)amino)phenyl)-N-methylmethanesulfonamide]: at EGFR^L858R+T790M+C797S, the “LTC” value is reported as “++ (Protein degradation > 80%)”. Also, the “DTC” value in the series on EGFR^del19+T790M+C797S is “++ (Protein degradation > 80%)”. For the same compound, in series [1] (setting [3]), the “AUC compared to the corresponding compounds” value was “significantly improved AUC”. For the same compound, in series [1], the half-life is 225 min and the AUC(0-t) was 5740 ng·h/mL.

Take `COc1cc(N2CCC(CN3CCN(c4ccc5c(c4)C(=O)N(C4CCC(=O)NC4=O)C5=O)CC3)CC2)c(C)cc1Nc1ncc(Cl)c(Nc2ccccc2N(C)S(C)(=O)=O)n1` (stereo not shown) [Compound 79, N-(2-((5-chloro-2-((4-(4-((4-(2-(2,6-dioxopiperidin-3-yl)-1,3-dioxoisoindolin-5-yl)piperazin-1-yl)methyl)piperidin-1-yl)-2-methoxy-5-methylphenyl)amino)pyrimidin-4-yl)amino)phenyl)-N-methylmethanesulfonamide]: the “LTC” value at EGFR^L858R+T790M+C797S is reported as “+ (Protein degradation 20~80%)”. The “DTC” value with EGFR^del19+T790M+C797S is “− (Protein degradation < 20%)”. For the same compound, in series [1], the half-life is 208 min and the AUC(0-t) turned out to be 1130 ng·h/mL.

On to `COc1cc(N2CCN(CC3CCN(C(=O)CNc4cccc5c4C(=O)N(C4CCC(=O)NC4=O)C5=O)CC3)CC2)c(C)cc1Nc1ncc(Cl)c(Nc2ccccc2N(C)S(C)(=O)=O)n1` (stereo not shown) [Compound 80, N-(2-((5-chloro-2-((4-(4-((1-((2-(2,6-dioxopiperidin-3-yl)-1,3-dioxoisoindolin-4-yl)glycyl)piperidin-4-yl)methyl)piperazin-1-yl)-2-methoxy-5-methylphenyl)amino)pyrimidin-4-yl)amino)phenyl)-N-methylmethanesulfonamide], for which the “LTC” value at EGFR^L858R+T790M+C797S is reported as “++ (Protein degradation > 80%)”. In addition, the “DTC” value in the series with EGFR^del19+T790M+C797S is on record as “++ (Protein degradation > 80%)”. Besides, the “AUC compared to the corresponding compounds” value in series [1] (setting [2]) is on record as “significantly improved AUC”. Further, in series [1], the half-life is 213 min and the AUC(0-t) is 1040 ng·h/mL.

As for `COc1cc(N2CCN(CC3CCN(C(=O)COc4cccc5c4C(=O)N(C4CCC(=O)NC4=O)C5=O)CC3)CC2)c(C)cc1Nc1ncc(Cl)c(Nc2ccccc2N(C)S(C)(=O)=O)n1` (stereo not shown) [Compound 81, N-(2-((5-chloro-2-((4-(4-((1-(2-((2-(2,6-dioxopiperidin-3-yl)-1,3-dioxoisoindolin-4-yl)oxy)acetyl)piperidin-4-yl)methyl)piperazin-1-yl)-2-methoxy-5-methylphenyl)amino)pyrimidin-4-yl)amino)phenyl)-N-methylmethanesulfonamide], the “LTC” value on EGFR^L858R+T790M+C797S is on record as “++ (Protein degradation > 80%)”. For the same compound, the “DTC” value in the series with EGFR^del19+T790M+C797S is on record as “++ (Protein degradation > 80%)”. Moreover, the “AUC compared to the corresponding compounds” value in series [1] (setting [2]) is “significantly improved AUC”. Further, in series [1], the half-life is 284 min and the AUC(0-t) turned out to be 502 ng·h/mL.

With `COc1cc(N2CCN(CC3CCN(C(=O)[C@H](C)Oc4cccc5c4C(=O)N(C4CCC(=O)NC4=O)C5=O)CC3)CC2)c(C)cc1Nc1ncc(Cl)c(Nc2ccccc2N(C)S(C)(=O)=O)n1` (stereo partly drawn) [Compound 82, N-(2-((5-chloro-2-((4-(4-((1-((2S)-2-((2-(2,6-dioxopiperidin-3-yl)-1,3-dioxoisoindolin-4-yl)oxy)propanoyl)piperidin-4-yl)methyl)piperazin-1-yl)-2-methoxy-5-methylphenyl)amino)pyrimidin-4-yl)amino)phenyl)-N-methylmethanesulfonamide], the “LTC” value on EGFR^L858R+T790M+C797S is “++ (Protein degradation > 80%)”. The “DTC” value in the series with EGFR^del19+T790M+C797S is “++ (Protein degradation > 80%)”. Further, in series [1] (setting [3]), the “AUC compared to the corresponding compounds” value was “significantly improved AUC”. Further, in series [1], the half-life is 362 min and the AUC(0-t) amounted to 366 ng·h/mL.

These data come from patent US20230322723A1, “COMPOUNDS FOR SUPPRESSING EGFR MUTANT CANCER AND PHARMACEUTICAL USE THEREOF” (J2H BIOTECH INC., priority 2020, published 2023).
